Assay results reported in patent US20140066410A1, “INHIBITORS OF BROMODOMAINS AS MODULATORS OF GENE EXPRESSION” (ICAHN SCHOOL OF MEDICINE AT MOUNT SINAI, priority 2011, published 2014).
“Also recorded” adds a separate entry of the source.

What was measured:
CBP BRD = CBP BRD (Homo sapiens, UniProt Q92793); test: Bromodomain binding affinity (tryptophan fluorescence binding assay); conditions: over PCAF, BRD41, BAZ1B and BAZ2B
Protocol: Monitoring change of intrinsic tryptophan fluorescence of a protein induced by ligand binding can be used to determine ligand binding affinity (KD). This assay was used to assess ligand binding to the CBP BRD and ischemin binding to the BRDs from other transcription proteins as follows. The chemical ligands were prepared at 500-850 μM in the PBS buffer. Their serial dilutions by a factor of 1.5 in a 384-wells black plate were carried out using a Tecan EVO200 liquid handler down to a concentration of 0.5 nM. Protein was added to the compounds to a final concentration in each well of 5 μM. Tryptophan fluorescence of the protein was measured (with excitation set at 280 nm, emission at 350 nm) on a Tecan Safire2 reader. Inner filter correction was introduced to take into account the possible intrinsic fluorescence of the compound. […] KD was calculated based on the curve fitting.

U20S cells = test: BRDU incorporation / cell cycle analysis; format: cell-based
Protocol: BRDU incorporation assay for cell cycle evaluation was performed in 96 well plates using calorimetric based kit from Calbiochem (Cat# QiA58). Hundred microliter of 1×10^5/ml cells were plated in DMEM media (Mediatech) with 10% fetal bovine serum (FBS). After 12 hours cells were treated with compounds ischemin and MS 119 (50 μM) with or without doxorubicin treatment (5 μM). The controls were DMSO and untreated cells. BRDU was added for 24 hours treatment. After 24 hours cells were fixed and treated with anti-BRDU antibody. After washings, the wells were incubated with peroxidase. After final wash, the color was developed using TMB as substrate and the reaction was stopped with stop solution and optical density was estimated at 450 nm.
DNA damage induced by doxorubicin leads to p53 stimulated cellular responses including cell cycle arrest, damage repair, and apoptosis. To determine the effect of ischemin on dividing U20S cells, U20S cells were treated with 5-bromo-2-deoxyuridine (BRDU) and the incorporated BRDU during in DNA synthesis was measured using an ELISA assay.

p53 [1] = test: Western blot of doxorubicin-treated U20S cells; format: cell-based
Protocol: U20S cells were harvested cells and lysed in lysis buffer (20 mM Tris (pH 8.0), 150 mM NaCl, 1 mM EGTA, 1% Triton X-100, and 50 mM NaF) containing protease inhibitor cocktail (Sigma). The cells were sonicated and spun down at 14,000 rpm for 30 min at 4° C. After protein estimation, 30-50 micrograms of lysates were subjected to SDS-PAGE, transferred onto nitrocellulose membranes, blocked with 5% milk/PBS and blotted with a primary antibody. Horse radish peroxidase-labeled secondary antibodies (goat anti-Mouse or anti-Rabbit) were added for 60 min at room temperature, and the blots were washed with TBS (20 mM Tris, 150 mM Nacl, and 0.05% tween −20) and subjected to autoradiography after development of reaction by ECL (GE health care).
The biochemical effects of ischemin on p53 stability and function as transcription factor was examined. U20S cells were incubated in the presence of doxorubicin with or without ischemin at concentration of 50 or 100 μM for 24 hours. Subsequently, cellular proteins were subjected to western blot analysis (as described above).
As a transcription factor, p53 ability to activate gene expression is also dependent upon chromatin modifications. Since CBP acetylates both histones and p53, the possible changes of epigenetic marks on p53 and global histones in presence of ischemin was evaluated.

p53 target genes = test: RT-PCR array of p53 signaling pathway genes in U20S cells; format: cell-based
Protocol: The selectivity of ischemin in transcription inhibition of p53 target genes was evaluated using a RT-PCR array analysis of RNA isolated from biological samples of U20S cells. The array was performed on RNA isolated from three different biological repeats in U20S cells using a set of primers selected for a group of genes that are known to be associated within p53 signaling pathways. The differentially expressed genes in treated related to untreated groups, i.e. doxorubicin treated versus untreated, or doxorubicin plus ischemin versus doxorubicin alone, were subjected to pathway analysis by using the Ingenuity System software. The fold changes of these genes were converted to log2Ratio and then imported into IPA tool along with gene symbols. The enriched pathways in the gene list were identified by Fisher exact test at p value of 0.05 and visualized in Canonical pathway explorer.

caspase 3/7 = test: Caspase 3/7 assay in cardiomyocytes; format: cell-based, rat; conditions: doxorubicin-induced
Protocol: Neonatal rat ventricular myocytes (NRVMs) were isolated by enzymatic dissociation of cardiac ventricle from 1-to-2-day-old Sprague-Dawley pups using the Worthington neonatal cardiomyocyte isolation system (Worthington). Briefly, the pups were anesthetized and their hearts were excised. The ventricular tissues were minced in ice cold HBSS and then digested with trypsin overnight at 4° C. followed by collagenase treatment for 45 min at 37° C. Cells were collected by centrifugation at 800 rpm for 5 min and subsequently underwent two rounds of preplating on culture dishes to minimize nonmyocyte contamination. The enriched cardiomyocytes were cultured in DMEM/F12 nutrient mixture (Invitrogen) with 10% horse serum and 5% fetal calf serum (Invitrogen). After 48 hours, the medium was changed to DMEM/F12 containing 1% insulin, transferrin, and selenium media supplement (ITS; Invitrogen) and 0.1% BSA.
Caspase 3/7 and TUNEL assays were performed to assess inhibition of apoptosis by ischemin. Caspase assay and TUNEL assays were performed using Caspase-Glo 3/7 and DeadEnd kits from Promega. Caspase assay was performed on live cardiomyocytes in 96 wells plate on three different days. Similarly, TUNEL assay was performed in triplicate on three different days. […] After treatment with compounds overnight and then doxorubicin for 24 hours, the intensities of luminecnce were read. […]

p53 [2] = test: Immunoblot of doxorubicin-treated primary neonatal rat cardiomyocytes; format: cell-based
Description: FIG. 4. Ischemin functions a cellular protective agent against myocardial ischemic stress. (A) TUNEL assay showing ischemin inhibition of doxorubicin-induced apoptosis in rat neonatal cardiomyocytes. (B) Evaluation of ischemin effects in U20S cells and cardiomyocytes. The immunoblots show down-regulation of doxorubicin-induced activated p53 in both cell types in the presence of ischemin, while levels of H2XS139p remained the same. (C) Inhibition of doxorubicin-induced caspase 3/7 activation in cardiomyocytes by ischemin.
(§1) The latter argues that ATM is active in presence of ischemin, which is consistent with our analysis using Western blots (FIG. 2B).

CBP/p300 = test: Fluorescence-based lysine acetyltransferase assay with histone H3 peptide substrate; format: biochemical; conditions: data not shown
Description: as §1

[3] = ischemin 50 or 100 μM, 24 hours, U20S cells
[4] = nuclear extracts from U20S cells

Chain of CBP BRD (Q92793 1085-1192 limits assumed): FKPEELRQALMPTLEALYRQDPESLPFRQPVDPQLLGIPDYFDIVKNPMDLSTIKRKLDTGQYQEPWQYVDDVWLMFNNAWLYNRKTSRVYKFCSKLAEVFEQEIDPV

## Cc1cc(/N=N/c2cc(S(=O)(=O)O)c(C)cc2C)c(N)cc1O [Ischemin/MS120, 5-(2-amino-4-hydroxy-5-methylphenylazo)-2,4-dimethylbenzenesulfonic acid]
CBP BRD
  Selectivity for the CBP BRD over other human BRDs: up to five-fold selectivity
U20S cells; 50 μM
  Toxicity to U20S cells: not toxic
U20S cells; compound 50 μM, doxorubicin 5 μM, U20S cells
  Prevention of doxorubicin-induced cell cycle arrest (decrease of BRDU incorporation): almost completely prevented; also recorded: prevents a doxorubicin-induced decrease of BRDU incorporation
p53 [1]; U20S cells, doxorubicin
  Level or functional phosphorylation state of ATM and CHK1: did not affect
p53 [1]; [3]
  Expression of p53 target genes p21, PUMA and 14-3-3s induced by doxorubicin: significantly decreased
  Levels of p53 protein, p53S15p and p53K382ac induced by doxorubicin: marked reduction
p53 [1]; [4]
  H3 acetylation at Lys9: decrease
  Histone H3 phosphorylation at Ser10: increase
p53 target genes
  Doxorubicin-induced expression of p53 target genes (CCNE2, CCNG2, CDC2, CDC25A, CDKN1A, CDKN2A, GADD45A, E2F1, E2F3, PCNA, SESN1, SESN2): differentially reduce
Caspase 3/7
  Caspase 3/7 activity: inhibiting caspase 3/7 activity in a dose-dependent manner
p53 [2]
  Doxorubicin induced p53 activation: able to inhibit
  H2AX phosphorylation at Ser139: did not alter
CBP/p300
  Direct inhibition of lysine acetyltransferase activity of CBP/p300: ruled out
